Measurements as given in patent US20100137449A1, “SUBSTITUTED 1,3-CYCLOPENTADIONE MULTI-TARGET PROTEIN KINASE MODULATORS OF CANCER, ANGIOGENESIS AND THE INFLAMMATORY PATHWAYS ASSOCIATED THEREWITH” (METAPROTEOMICS, LLC, priority 2007, published 2010).

Experiments:
Experiment in all cases: KinaseProfiler Assay
Abl(h) = Abl(h) (Homo sapiens, UniProt P00519)
Abl(Y253F)(h) = Abl(Y253F)(h) (Homo sapiens, UniProt P00519, Y253F)
CaMKIδ(h) = CaMKIδ(h) (Homo sapiens, UniProt Q8IU85)
IKKα(h) = molecular target: T1, IKKα(h) (Homo sapiens, UniProt O15111)
T1 sequence (O15111 1-745): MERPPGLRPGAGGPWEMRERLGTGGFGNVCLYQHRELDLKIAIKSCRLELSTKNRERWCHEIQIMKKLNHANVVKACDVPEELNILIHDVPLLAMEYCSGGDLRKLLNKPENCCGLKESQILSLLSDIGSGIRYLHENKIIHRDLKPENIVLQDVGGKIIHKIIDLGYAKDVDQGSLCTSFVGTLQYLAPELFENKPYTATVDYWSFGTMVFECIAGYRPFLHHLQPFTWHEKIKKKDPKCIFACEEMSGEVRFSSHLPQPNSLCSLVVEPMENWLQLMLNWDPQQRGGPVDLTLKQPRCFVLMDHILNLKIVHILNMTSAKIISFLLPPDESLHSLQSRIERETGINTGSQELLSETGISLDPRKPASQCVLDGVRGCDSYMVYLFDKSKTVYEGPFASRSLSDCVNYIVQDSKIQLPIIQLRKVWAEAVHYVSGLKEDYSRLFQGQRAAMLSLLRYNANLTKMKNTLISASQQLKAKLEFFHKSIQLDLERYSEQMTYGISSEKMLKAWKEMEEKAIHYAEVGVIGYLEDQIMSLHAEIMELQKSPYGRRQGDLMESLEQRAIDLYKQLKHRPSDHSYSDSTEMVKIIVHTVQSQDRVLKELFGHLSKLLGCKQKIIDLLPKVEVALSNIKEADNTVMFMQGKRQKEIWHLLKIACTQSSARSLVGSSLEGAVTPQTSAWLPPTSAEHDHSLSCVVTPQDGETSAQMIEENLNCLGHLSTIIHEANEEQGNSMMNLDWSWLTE

Lyn(h) = Lyn(h) (Homo sapiens, UniProt P07948)
Sequence of Lyn(h) (P07948 whole entry): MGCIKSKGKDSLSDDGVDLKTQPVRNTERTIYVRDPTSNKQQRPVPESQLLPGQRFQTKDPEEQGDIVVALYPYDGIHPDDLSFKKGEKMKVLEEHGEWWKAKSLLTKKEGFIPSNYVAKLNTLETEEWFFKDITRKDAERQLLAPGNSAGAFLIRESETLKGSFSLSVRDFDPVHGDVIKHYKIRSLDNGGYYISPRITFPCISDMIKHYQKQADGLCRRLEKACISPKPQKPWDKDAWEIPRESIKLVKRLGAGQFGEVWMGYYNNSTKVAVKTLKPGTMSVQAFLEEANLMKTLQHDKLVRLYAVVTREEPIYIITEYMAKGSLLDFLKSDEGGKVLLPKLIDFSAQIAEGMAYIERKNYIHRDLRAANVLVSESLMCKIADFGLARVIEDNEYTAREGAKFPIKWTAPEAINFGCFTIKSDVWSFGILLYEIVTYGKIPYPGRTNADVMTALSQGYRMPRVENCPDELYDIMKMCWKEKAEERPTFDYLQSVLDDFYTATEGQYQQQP

MAPK1(h), ERK1 = MAPK1(h), ERK1 (Homo sapiens, UniProt P27361)
Sequence of MAPK1(h), ERK1 (P27361 whole entry): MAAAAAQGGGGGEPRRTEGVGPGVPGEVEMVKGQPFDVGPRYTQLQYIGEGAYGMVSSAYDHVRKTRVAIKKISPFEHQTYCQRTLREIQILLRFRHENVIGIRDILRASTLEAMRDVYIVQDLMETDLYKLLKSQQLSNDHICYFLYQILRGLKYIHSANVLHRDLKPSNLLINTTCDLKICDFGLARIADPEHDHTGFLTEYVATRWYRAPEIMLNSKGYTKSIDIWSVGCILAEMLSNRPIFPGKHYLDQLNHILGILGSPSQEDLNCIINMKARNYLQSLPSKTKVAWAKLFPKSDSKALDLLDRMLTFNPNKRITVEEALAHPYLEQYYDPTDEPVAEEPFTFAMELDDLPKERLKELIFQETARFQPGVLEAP

PAK6(h) = PAK6(h) (Homo sapiens, UniProt Q9NQU5)
Sequence of PAK6(h) (Q9NQU5 whole entry): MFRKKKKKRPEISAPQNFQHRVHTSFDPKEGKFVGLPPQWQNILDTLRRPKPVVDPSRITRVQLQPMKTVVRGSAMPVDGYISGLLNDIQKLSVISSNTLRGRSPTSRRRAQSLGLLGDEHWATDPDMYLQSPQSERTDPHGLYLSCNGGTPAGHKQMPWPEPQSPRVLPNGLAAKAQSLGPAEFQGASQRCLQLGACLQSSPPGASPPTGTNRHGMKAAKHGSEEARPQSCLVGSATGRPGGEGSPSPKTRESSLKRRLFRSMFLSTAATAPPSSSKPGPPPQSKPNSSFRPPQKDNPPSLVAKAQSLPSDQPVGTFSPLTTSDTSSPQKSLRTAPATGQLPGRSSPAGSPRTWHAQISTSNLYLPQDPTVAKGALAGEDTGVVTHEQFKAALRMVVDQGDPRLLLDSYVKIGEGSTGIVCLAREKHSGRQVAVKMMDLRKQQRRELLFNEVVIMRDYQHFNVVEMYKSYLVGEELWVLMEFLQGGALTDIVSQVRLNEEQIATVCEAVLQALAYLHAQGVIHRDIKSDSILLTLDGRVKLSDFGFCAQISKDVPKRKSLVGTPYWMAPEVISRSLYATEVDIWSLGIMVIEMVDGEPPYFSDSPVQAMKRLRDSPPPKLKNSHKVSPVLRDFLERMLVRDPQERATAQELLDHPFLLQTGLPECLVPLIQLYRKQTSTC

PDGFRα(V561D)(h) = PDGFRα(V561D)(h) (Homo sapiens, UniProt P16234, V561D)
PDGFRβ(h) = PDGFRβ(h) (Homo sapiens, UniProt P09619)
Sequence of PDGFRβ(h) (P09619 33-1106): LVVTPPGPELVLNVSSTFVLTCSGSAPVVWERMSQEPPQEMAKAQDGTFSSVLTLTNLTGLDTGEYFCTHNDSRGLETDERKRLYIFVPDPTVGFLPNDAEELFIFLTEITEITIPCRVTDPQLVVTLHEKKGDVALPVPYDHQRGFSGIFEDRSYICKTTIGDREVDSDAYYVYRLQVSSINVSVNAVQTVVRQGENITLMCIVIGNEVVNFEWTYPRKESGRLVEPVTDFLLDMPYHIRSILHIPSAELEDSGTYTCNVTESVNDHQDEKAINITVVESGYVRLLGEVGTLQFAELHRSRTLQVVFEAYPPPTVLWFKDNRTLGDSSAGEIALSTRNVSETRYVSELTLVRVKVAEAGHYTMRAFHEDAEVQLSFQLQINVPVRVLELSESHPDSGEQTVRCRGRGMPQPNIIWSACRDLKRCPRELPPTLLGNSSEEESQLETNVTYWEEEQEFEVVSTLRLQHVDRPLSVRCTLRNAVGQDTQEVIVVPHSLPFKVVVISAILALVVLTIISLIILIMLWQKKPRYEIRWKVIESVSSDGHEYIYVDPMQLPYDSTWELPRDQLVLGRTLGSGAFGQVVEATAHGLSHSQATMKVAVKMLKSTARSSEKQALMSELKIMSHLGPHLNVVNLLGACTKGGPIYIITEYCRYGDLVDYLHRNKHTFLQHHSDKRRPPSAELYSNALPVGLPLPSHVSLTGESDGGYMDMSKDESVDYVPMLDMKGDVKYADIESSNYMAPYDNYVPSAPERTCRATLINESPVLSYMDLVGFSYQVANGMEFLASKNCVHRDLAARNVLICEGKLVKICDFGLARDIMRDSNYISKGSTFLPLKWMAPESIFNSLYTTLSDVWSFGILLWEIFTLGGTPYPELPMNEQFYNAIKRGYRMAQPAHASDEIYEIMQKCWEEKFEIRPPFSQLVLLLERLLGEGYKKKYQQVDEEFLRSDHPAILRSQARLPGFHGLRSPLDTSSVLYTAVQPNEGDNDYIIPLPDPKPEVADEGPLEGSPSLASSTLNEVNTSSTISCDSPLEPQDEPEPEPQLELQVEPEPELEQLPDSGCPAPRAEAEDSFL

PKBα(h) = PKBα(h) (Homo sapiens, UniProt P31749)
Sequence of PKBα(h) (P31749 whole entry): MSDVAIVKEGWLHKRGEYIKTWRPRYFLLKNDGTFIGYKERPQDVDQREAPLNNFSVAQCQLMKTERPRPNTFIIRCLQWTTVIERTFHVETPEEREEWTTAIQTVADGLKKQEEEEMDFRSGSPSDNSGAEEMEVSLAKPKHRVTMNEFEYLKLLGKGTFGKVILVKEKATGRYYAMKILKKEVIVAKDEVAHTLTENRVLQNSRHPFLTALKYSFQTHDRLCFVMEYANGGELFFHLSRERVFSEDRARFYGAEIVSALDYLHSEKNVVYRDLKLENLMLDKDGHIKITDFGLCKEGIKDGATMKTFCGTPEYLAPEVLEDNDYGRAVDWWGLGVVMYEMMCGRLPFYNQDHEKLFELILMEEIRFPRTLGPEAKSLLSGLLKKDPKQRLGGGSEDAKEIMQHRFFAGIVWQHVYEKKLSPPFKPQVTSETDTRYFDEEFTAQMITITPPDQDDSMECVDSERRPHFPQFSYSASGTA

PKBγ(h) = PKBγ(h) (Homo sapiens, UniProt Q9Y243)
Sequence of PKBγ(h) (Q9Y243 whole entry): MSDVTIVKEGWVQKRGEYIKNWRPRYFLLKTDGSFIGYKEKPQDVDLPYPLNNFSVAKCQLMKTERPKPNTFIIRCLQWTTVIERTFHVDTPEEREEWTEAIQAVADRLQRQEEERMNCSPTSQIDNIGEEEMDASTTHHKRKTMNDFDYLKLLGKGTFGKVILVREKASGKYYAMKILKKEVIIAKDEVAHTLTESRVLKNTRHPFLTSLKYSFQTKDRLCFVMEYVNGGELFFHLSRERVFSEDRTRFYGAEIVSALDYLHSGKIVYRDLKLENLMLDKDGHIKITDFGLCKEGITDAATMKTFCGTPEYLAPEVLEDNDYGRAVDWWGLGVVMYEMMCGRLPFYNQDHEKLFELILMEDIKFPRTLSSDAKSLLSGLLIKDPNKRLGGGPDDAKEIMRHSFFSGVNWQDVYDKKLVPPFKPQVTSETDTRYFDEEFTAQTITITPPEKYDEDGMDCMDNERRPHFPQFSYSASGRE

PKCθ(h) = PKCθ(h) (Homo sapiens, UniProt Q04759)
Sequence of PKCθ(h) (Q04759 whole entry): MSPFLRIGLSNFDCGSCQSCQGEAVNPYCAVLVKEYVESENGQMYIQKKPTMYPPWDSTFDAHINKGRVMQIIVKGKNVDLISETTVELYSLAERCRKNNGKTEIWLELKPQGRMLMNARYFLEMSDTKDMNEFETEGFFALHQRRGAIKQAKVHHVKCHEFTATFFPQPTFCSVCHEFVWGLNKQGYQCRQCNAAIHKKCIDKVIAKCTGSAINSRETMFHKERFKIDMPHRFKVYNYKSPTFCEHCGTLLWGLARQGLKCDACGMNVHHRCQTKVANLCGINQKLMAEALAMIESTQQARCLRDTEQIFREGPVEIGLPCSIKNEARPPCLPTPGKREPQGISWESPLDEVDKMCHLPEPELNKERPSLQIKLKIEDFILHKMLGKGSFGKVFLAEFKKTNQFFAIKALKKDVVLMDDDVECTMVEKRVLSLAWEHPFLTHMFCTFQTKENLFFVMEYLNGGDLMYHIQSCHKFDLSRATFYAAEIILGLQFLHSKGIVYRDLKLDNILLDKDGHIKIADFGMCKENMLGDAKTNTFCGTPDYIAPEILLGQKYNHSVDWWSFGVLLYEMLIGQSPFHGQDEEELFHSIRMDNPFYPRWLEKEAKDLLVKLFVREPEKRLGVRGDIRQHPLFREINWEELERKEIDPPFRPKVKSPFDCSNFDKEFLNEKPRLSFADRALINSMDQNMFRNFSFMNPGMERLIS

SAPK3(h) = molecular target: T2, SAPK3(h) (Homo sapiens, UniProt P53778)
T2 sequence (P53778 1-367): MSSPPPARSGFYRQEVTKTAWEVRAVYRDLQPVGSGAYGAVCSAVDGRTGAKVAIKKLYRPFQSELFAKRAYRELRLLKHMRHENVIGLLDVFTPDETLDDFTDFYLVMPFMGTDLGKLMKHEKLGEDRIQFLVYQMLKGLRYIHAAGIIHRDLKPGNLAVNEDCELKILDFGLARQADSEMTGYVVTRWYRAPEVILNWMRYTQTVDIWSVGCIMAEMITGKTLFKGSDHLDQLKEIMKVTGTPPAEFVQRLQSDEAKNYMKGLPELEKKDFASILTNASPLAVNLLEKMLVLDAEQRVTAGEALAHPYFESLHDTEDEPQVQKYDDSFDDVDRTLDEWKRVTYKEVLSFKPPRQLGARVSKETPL

Sequence of CaMKIδ(h) (Q8IU85 whole entry): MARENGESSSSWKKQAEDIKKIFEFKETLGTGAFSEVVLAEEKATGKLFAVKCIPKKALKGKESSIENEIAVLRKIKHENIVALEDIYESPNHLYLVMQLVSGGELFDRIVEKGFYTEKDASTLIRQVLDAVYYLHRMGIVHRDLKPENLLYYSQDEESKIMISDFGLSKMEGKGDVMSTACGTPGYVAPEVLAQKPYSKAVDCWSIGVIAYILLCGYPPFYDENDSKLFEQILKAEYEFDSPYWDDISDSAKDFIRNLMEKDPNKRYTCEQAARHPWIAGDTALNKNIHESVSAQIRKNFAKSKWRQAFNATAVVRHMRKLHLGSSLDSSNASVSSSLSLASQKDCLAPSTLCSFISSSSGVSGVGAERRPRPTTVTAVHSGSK

## CC(C)CCC(=O)[C@]1(O)C(O)=C(C(=O)C(C)C)C(=O)[C@H]1CCC(C)C [TH2, tetrahydroiso-cohumulone]
Abl(h); 1 μg/ml
  kinase inhibition: 92% of control
Abl(h); 5 μg/ml
  kinase inhibition: 87% of control
Abl(h); 25 μg/ml
  kinase inhibition: 70% of control
Abl(h); 50 μg/ml
  kinase inhibition: 64% of control
Abl(h); 100 μg/ml
  kinase inhibition: 40% of control
Abl(Y253F)(h); 1 μg/ml
  kinase inhibition: 117% of control
Abl(Y253F)(h); 5 μg/ml
  kinase inhibition: 100% of control
Abl(Y253F)(h); 25 μg/ml
  kinase inhibition: 83% of control
Abl(Y253F)(h); 50 μg/ml
  kinase inhibition: 65% of control
Abl(Y253F)(h); 100 μg/ml
  kinase inhibition: 58% of control
CaMKIδ(h); 1 μg/ml
  kinase inhibition: 95% of control
CaMKIδ(h); 5 μg/ml
  kinase inhibition: 88% of control
CaMKIδ(h); 25 μg/ml
  kinase inhibition: 101% of control
CaMKIδ(h); 50 μg/ml
  kinase inhibition: 105% of control
CaMKIδ(h); 100 μg/ml
  kinase inhibition: 98% of control
IKKα(h); 1 μg/ml
  kinase inhibition: 99% of control
IKKα(h); 5 μg/ml
  kinase inhibition: 108% of control
IKKα(h); 25 μg/ml
  kinase inhibition: 114% of control
IKKα(h); 50 μg/ml
  kinase inhibition: 114% of control
IKKα(h); 100 μg/ml
  kinase inhibition: 120% of control
Lyn(h); 1 μg/ml
  kinase inhibition: 145% of control
Lyn(h); 5 μg/ml
  kinase inhibition: 146% of control
Lyn(h); 25 μg/ml
  kinase inhibition: 139% of control
Lyn(h); 50 μg/ml
  kinase inhibition: 91% of control
Lyn(h); 100 μg/ml
  kinase inhibition: 68% of control
MAPK1(h), ERK1; 1 μg/ml
  kinase inhibition: 93% of control
MAPK1(h), ERK1; 5 μg/ml
  kinase inhibition: 83% of control
MAPK1(h), ERK1; 25 μg/ml
  kinase inhibition: 72% of control
MAPK1(h), ERK1; 50 μg/ml
  kinase inhibition: 75% of control
MAPK1(h), ERK1; 100 μg/ml
  kinase inhibition: 67% of control
PAK6(h); 1 μg/ml
  kinase inhibition: 85% of control
PAK6(h); 5 μg/ml
  kinase inhibition: 113% of control
PAK6(h); 25 μg/ml
  kinase inhibition: 90% of control
PAK6(h); 50 μg/ml
  kinase inhibition: 89% of control
PAK6(h); 100 μg/ml
  kinase inhibition: 42% of control
PDGFRα(V561D)(h); 1 μg/ml
  kinase inhibition: 115% of control
PDGFRα(V561D)(h); 5 μg/ml
  kinase inhibition: 126% of control
PDGFRα(V561D)(h); 25 μg/ml
  kinase inhibition: 116% of control
PDGFRα(V561D)(h); 50 μg/ml
  kinase inhibition: 111% of control
PDGFRα(V561D)(h); 100 μg/ml
  kinase inhibition: 103% of control
PDGFRβ(h); 1 μg/ml
  kinase inhibition: 111% of control
PDGFRβ(h); 5 μg/ml
  kinase inhibition: 110% of control
PDGFRβ(h); 25 μg/ml
  kinase inhibition: 53% of control
PDGFRβ(h); 50 μg/ml
  kinase inhibition: 50% of control
PDGFRβ(h); 100 μg/ml
  kinase inhibition: 44% of control
PKBα(h); 1 μg/ml
  kinase inhibition: 123% of control
PKBα(h); 5 μg/ml
  kinase inhibition: 130% of control
PKBα(h); 25 μg/ml
  kinase inhibition: 126% of control
PKBα(h); 50 μg/ml
  kinase inhibition: 118% of control
PKBα(h); 100 μg/ml
  kinase inhibition: 79% of control
PKBγ(h); 1 μg/ml
  kinase inhibition: 112% of control
PKBγ(h); 5 μg/ml
  kinase inhibition: 110% of control
PKBγ(h); 25 μg/ml
  kinase inhibition: 107% of control
PKBγ(h); 50 μg/ml
  kinase inhibition: 97% of control
PKBγ(h); 100 μg/ml
  kinase inhibition: 83% of control
PKCθ(h); 1 μg/ml
  kinase inhibition: 101% of control
PKCθ(h); 5 μg/ml
  kinase inhibition: 84% of control
PKCθ(h); 25 μg/ml
  kinase inhibition: 116% of control
PKCθ(h); 50 μg/ml
  kinase inhibition: 96% of control
PKCθ(h); 100 μg/ml
  kinase inhibition: 83% of control
SAPK3(h); 1 μg/ml
  kinase inhibition: 109% of control
SAPK3(h); 5 μg/ml
  kinase inhibition: 99% of control
SAPK3(h); 25 μg/ml
  kinase inhibition: 114% of control
SAPK3(h); 50 μg/ml
  kinase inhibition: 122% of control
SAPK3(h); 100 μg/ml
  kinase inhibition: 106% of control
